Source: patent EP0509845A1, “(+) and (-) enantiomers of 5-aliphatic-6-(benzoxazinyl- or benzothiazinyl)-2,3,4,5-tetrahydropyridazin-3-ones” (ORTHO PHARMACEUTICAL CORPORATION, priority 1991, dated 1992)
Like-named read-outs stand apart in the source and are kept apart here. Blank lines part the entries; values can stand above or below the molecule they belong to.

Legend:
[1] = system: adult mongrel dogs; assay: Cardiotonic activity, racemate testing in anesthetized dogs; type: in vivo
Procedure: The cardiotonic activity of the compounds was determined in accordance with the method of Alousi, A. A., et al., J. Cir. Res., 45, 666 (l979). Basically, adult mongrel dogs were anesthetized with sodium pentobarbital and artifically respired. Arterial pressure was recorded via a femoral artery and the pressure pulse used to trigger a cardiotachometer for heart rate. Left ventricular pressure was measured with a Millar catheter and dP/dt was derived. Cardiac output was determined by measuring ascending aortic blood flow with an electromagnetic flow probe and myocardial contractile force was measured with a Walton Brodie strain gauge sutured to the right ventricle. Lead II EKG was also recorded. A standard dose of dopamine was administered to assess myocardial responsiveness. Test compounds were administered by i.v. infusion or bolus administration and the effects on cardiovascular parameters were determined. Dose-related effects of the test compound on BP, HR, dP/dt max., C.F. and C.O. were compared to pretreatment control values and expressed as a percentage change.

[2] = target: T1, canine cardiac cyclic nucleotide phosphodiesterase (PDE) fraction III (Canis lupus familiaris, UniProt A0A8I3NYE0); assay: Cyclic AMP phosphodiesterase assay with fraction III isoenzyme, comparative testing; type: biochemical
T1 construct: The fraction III isoenzyme was pooled and dialyzed; from tissue; host or cells: canine heart, soluble supernatant, DEAE cellulose fraction III (800 mM sodium acetate eluate)
T1 sequence (A0A8I3NYE0 1-1135): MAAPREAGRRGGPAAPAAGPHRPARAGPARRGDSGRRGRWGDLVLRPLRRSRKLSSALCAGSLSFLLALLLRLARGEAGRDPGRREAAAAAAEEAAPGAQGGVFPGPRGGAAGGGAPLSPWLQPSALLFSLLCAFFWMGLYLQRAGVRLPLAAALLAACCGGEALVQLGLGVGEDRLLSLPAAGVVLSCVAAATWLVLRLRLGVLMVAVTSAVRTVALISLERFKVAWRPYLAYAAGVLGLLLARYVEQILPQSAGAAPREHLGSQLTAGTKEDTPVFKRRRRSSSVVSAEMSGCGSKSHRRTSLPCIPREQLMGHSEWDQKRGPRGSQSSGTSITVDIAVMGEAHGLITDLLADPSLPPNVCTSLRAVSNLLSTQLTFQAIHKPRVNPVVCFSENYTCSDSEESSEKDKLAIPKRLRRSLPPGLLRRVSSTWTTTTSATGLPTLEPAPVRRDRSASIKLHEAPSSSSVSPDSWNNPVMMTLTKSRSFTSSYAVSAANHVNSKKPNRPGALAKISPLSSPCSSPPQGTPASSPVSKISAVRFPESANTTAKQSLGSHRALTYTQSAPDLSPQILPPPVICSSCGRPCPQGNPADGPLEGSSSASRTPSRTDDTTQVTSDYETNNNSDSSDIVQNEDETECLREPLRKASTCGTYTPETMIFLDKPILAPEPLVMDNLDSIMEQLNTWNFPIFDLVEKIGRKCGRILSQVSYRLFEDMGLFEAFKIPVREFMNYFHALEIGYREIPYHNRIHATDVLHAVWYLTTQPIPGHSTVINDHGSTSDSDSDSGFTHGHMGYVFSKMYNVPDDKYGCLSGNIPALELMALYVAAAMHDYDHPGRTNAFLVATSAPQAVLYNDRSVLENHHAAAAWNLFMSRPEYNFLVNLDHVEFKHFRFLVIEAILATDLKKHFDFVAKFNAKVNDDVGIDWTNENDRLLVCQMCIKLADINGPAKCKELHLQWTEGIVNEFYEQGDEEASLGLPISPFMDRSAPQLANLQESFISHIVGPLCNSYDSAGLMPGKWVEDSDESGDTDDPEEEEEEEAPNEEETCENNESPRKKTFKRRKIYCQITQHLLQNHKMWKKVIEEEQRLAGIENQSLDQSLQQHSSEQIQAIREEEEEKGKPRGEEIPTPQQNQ

[3] = system: adult mongrel dogs; assay: Comparative racemate and enantiomer hemodynamic testing in pentobarbital anesthetized open-chest dogs; type: in vivo; settings: dogs
Procedure: Adult mongrel dogs weighing approximately l0-l4 kg were anesthetized with sodium pentobarbital (35 mg/kg, i.p.) and artificially respired. A femoral artery was cannulated to measure mean arterial pressure (MAP) and a femoral vein was cannulated for administering compounds. A Millar microtip pressure transducer was placed in the left ventricle via the left carotid artery to measure left ventricular end diastolic pressure (EDP). pressure pulses triggered a cardiotachometer for determination of heart rate (HR) while the left ventricular pressure waveform was differentiated using a Gould differentiating amplifier to yield dP/dtmax, an index of contractility. A right thoractomy was performed at the fourth intercostal space and the pericardial sac was opened. An externally calibrated Walton-Brodie strain gauge arch was sutured to the right ventricular free wall and stretched to produce a baseline force of approximately l00g. Subsequent changes in right ventricular contractile force (CF) were measured from this baseline. A Carolina electromagnetic flow probe was placed on the ascending aorta to estimate cardiac output (CO). A flexible fluid-filled catheter was inserted into the tip of the right atrium to measure right atrial pressure (RAP). Needle electrodes were placed in the appropriate limbs to record a lead II electrocardiogram (ECG). The following formulas were used to calculate derived parameters: Stroke volume (SV) = CO/HR x l000 Stroke work (SW) = ([…]) x SV Total peripheral resistance (TPR) = (MAP-EDP)/CO
Following surgery and stabilization of hemodynamic parameters, an i.v. infusion of dopamine (l0-l5 µg/kg/min for 3 min) was administered with a Harvard infusion pump to assess responsiveness to positive inotropic stimulation. Baseline hemodynamic values were obtained immediately prior to drug infusion. Responses were continuously monitored on a recorder (Gould 2800) and data collection was facilitated by the use of a Buxco cardiovascular analyzer and data logger.
In the comparative testing a stock solution of each enantiomer (l mg/ml) was prepared fresh daily and diluted before use. Compounds were dissolved in a small volume of dimethylformamide (DMF) and diluted with saline for a final concentration of l5% DMF. Further dilutions were made with a l5% DMF solution.
In the comparative testing each compound was administered in cumulative doses to separate dogs. Data were obtained at the end of each dose. (±) Bemoradan and (+) Bemordan were infused at cumulative doses of 5, l5, 35 and 75 µg/kg, administered with a Harvard infusion pump for 5 minutes each at rates of 0.56, l.l, 2.2, and […], respectively. (-) Bemoradan was given at doses of 5, l5 and 35 µg/kg following the same protocol. The high dose of the (-) isomer was not administered as a means of conserving compound.
Hemodynamic results were expressed as the percent change from pre-drug baseline values and compared using a Dunnett's test with a criterion for significance of p < 0.05. Contractile force ED₄₀ values (i.e., the dose which increased contractile force by 40%) were calculated from dose-response regression lines.

[4] = system: human platelet aggregation; assay: Platelet aggregation in vitro in platelet rich plasma; type: cell-based; settings: Homo sapiens, Platelet, human PRP
Procedure: The racemate and enantiomeric Bemoradan were tested for their effects in vitro on human platelet aggregation. Platelet rich plasma (PRP) was prepared from human donors who were free of aspirin for the preceding week. Venous blood was collected in sodium citrate vacutainer tubes and PRP was obtained by centrifuging the blood at l000 rpm for 5 min. Compounds were dissolved in methanol and added to 480 µl of PRP in a Chrono-log dual channel aggregometer l min prior to aggregant. Serotonin at 5 µM or ADP at 2 µM were the aggregating agents.

[5] = target: T2, cyclic nucleotide phosphodiesterase (Canis lupus familiaris, UniProt A0A8I3NYE0); assay: Phosphodiesterase inhibitory activity, racemate testing; type: biochemical; settings: read-out: IC50 (Micromolar concentration for 50% inhibition of cyclic nucleotide activity); cyclic AMP as substrate, Tris-Cl buffer pH 7.4
T2 sequence (A0A8I3NYE0 1-1135): T1 sequence (A0A8I3NYE0 1-1135)

Molecule: 6-(3,4-Dihydro-3-oxo-l,4[2H]-benzothiazin-7-yl)-2,3,4,5-tetrahydro-5-methylpyridazin-3-one [Example 56]
- CF (Percent increase in cardiac force) ([1]; I.V. dose 0.027 mpk): 32%

- IC50 ([2]; Table I summary, canine cardiac PDE fraction III, read-out: PDE III inhibition (IC50)): 710 nM
- IC50 ([2]; canine heart fraction III, 0.1 µM cyclic AMP, read-out: PDE III IC50): 710 nM
- IC50 ([4]; ADP at 2 µM, read-out: Antiaggregatory IC50 (µM) vs. ADP): 0.65 µM
- IC50 ([4]; Serotonin at 5 µM, read-out: Antiaggregatory IC50 (µM) vs. 5-HT): 0.4 µM
- IC50 ([4]; Table I summary, ADP at 2 µM as aggregant, read-out: Platelet aggregation (IC50) vs. ADP): 0.65 µM
- IC50 ([4]; Table I summary, serotonin at 5 µM as aggregant, read-out: Platelet aggregation (IC50) vs. 5-HT (serotonin)): 0.4 µM
Molecule: CC1CC(=O)NN=C1c1ccc2c(c1)OCC(=O)N2 (racemic) [Example 46, 6-(3,4-Dihydro-3-oxo-l,4(2H)-benzoxazin-7-yl)-2,3,4,5-tetrahydro-5-methylpyridazin-3-one]
- ED40 ([3]; Canis lupus familiaris, iv, Table I summary, dose increasing contractile force by 40%, i.v., read-out: In vivo inotropic ED40, i.v.): 4.4 µg/kg
- CF ED40 (µg/kg) with 95% F.L. ([3]; dose causing a 40% increase in contractility above baseline, from dose-response regression lines, i.v. infusion): 4.4 (3.9 - 4.9) µg/kg

- IC50 [5]: 25 µM
Molecule: COC(=O)CC(C)C(=O)c1ccc2c(c1)SCC(=O)N2C (stereo not drawn) [Example 53, Methyl 4-(3,4-dihydro-4-methyl-3-oxo-l,4[2H]-benzothiazin-7-yl)-3-methyl-4-oxobutyrate]
- CF (Percent increase in cardiac force) ([1]; I.V. dose 0.075 mpk): 21%

- IC50 [5]: 22 µM
Molecule: O=C1CCC(c2ccc3c(c2)NC(=O)CS3)=NN1 [Example 54, 6-(3,4-Dihydro-3-oxo-l,4[2H]-benzothiazin-6-yl)-2,3,4,5-tetrahydropyridazin-3-one]
- CF (Percent increase in cardiac force) ([1]; I.V. dose 0.075 mpk): 11%

- IC50 [5]: < 0.1 µM
Molecule: CN1C(=O)CSc2ccc(C3=NNC(=O)CC3)cc21 [Example 55, 6-(3,4-Dihydro-4-methyl-3-oxo-l,4[2H]-benzothiazin-6-yl)-2,3,4,5-tetrahydropyridazin-3-one]
- CF (Percent increase in cardiac force) ([1]; I.V. dose 0.035 mpk): 160%
